IC50 data for seven molecules are collected here from patent US11827628B2, “Compositions and methods for inhibition of the JAK pathway” (Rigel Pharmaceuticals, Inc., priority 2005, dated 2023).

Read-outs that look alike come from different tables or passages of the source.

The test system of assay [1] is IL-4 stimulated expression of CD23 in human Ramos B cells (JAK-1 and JAK-3). Briefly: Assay for Ramos B-Cell Line Stimulated with IL-4 (CD23 upregulation, FACS). It is filed as cell-based. Particulars: Ramos B-cell line stimulated with IL-4; CD23 expression by FACS; read-out: IC50, Example 41. The method, boiled down: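 Log-phase Ramos cells, 1 h compound pre-incubation at 37 °C; IL-4 50 units/mL final, 20-24 h; CD23-PE stain, FACS; IC50.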
(In general: In flow cytometry, cells or beads pass a laser one at a time.)

In assay [2] the test system is up-regulation of ICAM-1 (CD54) by IFNγ in U937 human monocytic cells. Put plainly: U937 IFNγ ICAM1 FACS Assay. The class given is cell-based. To be noted: ICAM-1 expression by FACS, read-out: IC50, Example 44. The method, boiled down: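 U937 cells in 10% FCS RPMI were preincubated 30 min at 37 °C with an 8-point, 3-fold compound dilution series in duplicate, then stimulated with IFNγ for 18–24 h. Surface ICAM-1 was stained with APC anti-ICAM-1 and read by flow cytometry as geometric mean on live-gated cells. EC50 was derived.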

Setting [3] is: U937 cells stimulated with IFNγ.

One may read the IC50 as the concentration that inhibits the measured activity by half. As for `N#CCCc1ccc(Nc2nc(Nc3cccc(S(N)(=O)=O)c3)ncc2F)cc1C(F)(F)F` [III-31, N4-(4-Cyanoethylene-3-trifluoromethylphenyl)-5-fluoro-N2-(3-aminosulfonylphenyl)-2,4-pyrimidinediamine], the IC50 in assay [1] was 95.4 nM; in assay [2] (setting [3]), 1700 nM.

With `NS(=O)(=O)c1cccc(Nc2ncc(F)c(Nc3cccc(CNC(=O)C4CC4)c3)n2)c1` [III-39, N2-(3-aminosulfonyl)phenyl-N4-(3-cyclopropylcarbonylaminomethyl)phenyl-5-fluoro-2,4-pyrimidinediamine], the IC50 in assay [1] came to 117 nM; in assay [2] (setting [3]) it was 1440 nM.

For `Cc1ccc(Nc2ncc(F)c(Nc3cccc(CNC(=O)C4CC4)c3)n2)cc1S(N)(=O)=O` [III-40, N2-(3-aminosulfonyl-4-methyl)phenyl-N4-(3-cyclopropylcarbonylaminomethyl)phenyl-5-fluoro-2,4-pyrimidinediamine], the IC50 was 134 nM in assay [1] and 1120 nM in assay [2] (setting [3]).

Take `NS(=O)(=O)c1cccc(Nc2ncc(F)c(Nc3ccc(Cc4ccncc4)cc3)n2)c1` [III-70, N2-(3-Aminosulfonylphenyl)-5-fluoro-N4-[4-(4-pyridinylmethyl)phenyl]-2,4-pyrimidinediamine]: the IC50 in assay [1] was 64.5 nM; in assay [2] (Homo sapiens, U-937, U937 cells stimulated with IFNγ), 1650 nM.

For “N2-(3-Aminocarbonyl-5-methylphenyl)-5-fluoro-N2-[4-(1-ethylpyrazol-5-yl)amidophenyl)-2,4-pyrimidinediamine [II-20]”, the values for the IC50 in assay [1] and in assay [2] (setting [3]) were 428 nM and 11500 nM, respectively.

“N2-(3-Aminocarbonyl-5-methylphenyl)-5-fluoro-N2-[4-(1-methylpyrazol-5-yl)amidophenyl)-2,4-pyrimidinediamine [II-21]”: the IC50 in assay [1] was 698 nM; in assay [2] (setting [3]) it was 41700 nM.

Turning to “N2-[3-Aminosulfonyl-4-(4-methylpiperazin-1-yl)phenyl]-5-fluoro-N4-[2-fluoro-4-(5-methylisoxazol-3-yl)methyleneoxyphenyl]-2,4-pyrimidinediamine [Compound I-251]”, the IC50 is 167 nM in assay [1] and 1090 nM in assay [2] (setting [3]).
